{"source": "patent US4214093A", "about": "“Amino- or guanidino-1,2,3,4-tetrahydro-1-naphthoic esters” (Torii & Co., Ltd., priority 1977, dated 1980)", "key": {"[1]": {"target": "T1, Trypsin (Bos taurus, UniProt P00760)", "T1 sequence (P00760 24-246)": "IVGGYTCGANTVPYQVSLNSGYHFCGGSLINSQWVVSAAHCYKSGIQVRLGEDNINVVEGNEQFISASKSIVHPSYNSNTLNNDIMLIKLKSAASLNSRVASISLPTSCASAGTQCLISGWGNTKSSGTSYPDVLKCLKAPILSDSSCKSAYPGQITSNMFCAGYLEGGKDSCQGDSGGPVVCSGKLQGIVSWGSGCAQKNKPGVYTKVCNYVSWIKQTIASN", "assay": "Inhibitory effect on ester-hydrolyzing activity of trypsin (TAMe substrate)", "assay_type": "biochemical", "settings": "in vitro, TAMe, pH 8.6, 37° C.; Table 4 bracketed value; read-out: Trypsin ID50", "experimental": "(§1) The enzyme-inhibitory activities in vitro of the compounds of this invention were measured by the following procedure according to the method of M. Muramatsu et al. [[…]. […] After the incubation, 1.5 ml of 2 M alkaline hydroxylamine was added and thoroughly mixed, and allowed to stand at room temperature for 15 minutes."}, "[2]": {"target": "Human Plasmin (Homo sapiens, UniProt P00747)", "sequence (P00747 581-810 limits assumed)": "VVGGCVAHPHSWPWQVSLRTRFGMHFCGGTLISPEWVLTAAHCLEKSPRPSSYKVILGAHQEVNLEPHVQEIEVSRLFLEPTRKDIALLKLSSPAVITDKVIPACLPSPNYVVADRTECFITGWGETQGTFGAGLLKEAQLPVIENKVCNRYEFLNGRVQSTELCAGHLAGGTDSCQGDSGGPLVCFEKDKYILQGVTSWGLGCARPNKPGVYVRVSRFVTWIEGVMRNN", "sequence (P00747 97-580 partner limits assumed)": "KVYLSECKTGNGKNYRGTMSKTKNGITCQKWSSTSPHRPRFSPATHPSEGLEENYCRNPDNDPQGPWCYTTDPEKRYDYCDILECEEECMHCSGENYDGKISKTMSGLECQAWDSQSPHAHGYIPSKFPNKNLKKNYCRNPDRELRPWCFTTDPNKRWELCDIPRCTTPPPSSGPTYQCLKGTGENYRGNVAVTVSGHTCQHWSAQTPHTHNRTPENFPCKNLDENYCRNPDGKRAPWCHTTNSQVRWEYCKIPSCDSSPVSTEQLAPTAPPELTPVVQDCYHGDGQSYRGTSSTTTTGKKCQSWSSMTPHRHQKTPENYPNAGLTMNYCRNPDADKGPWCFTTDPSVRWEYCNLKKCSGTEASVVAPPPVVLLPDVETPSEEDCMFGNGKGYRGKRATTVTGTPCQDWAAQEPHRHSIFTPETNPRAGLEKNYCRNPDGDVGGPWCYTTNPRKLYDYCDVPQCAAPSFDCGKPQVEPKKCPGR", "assay": "Inhibitory effect on ester-hydrolyzing activity of human plasmin (TAMe substrate)", "assay_type": "biochemical", "settings": "in vitro, TAMe; Table 4 bracketed value; read-out: Plasmin ID50", "how_it_was_run": "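Plasmin generated by streptokinase activation of plasminogen; esterase activity measured with TAMe substrate. After incubation, alkaline hydroxylamine (2 M) added and left 15 min at room temperature for detection.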"}, "[3]": {"target": "Bovine Thrombin (Bos taurus, UniProt P00735)", "assay": "Inhibitory effect on ester-hydrolyzing activity of bovine thrombin (TAMe substrate)", "assay_type": "biochemical", "how_it_was_run": "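Thrombin […] in 0.02 M sodium phosphate pH 7.4 was preincubated with varying inhibitor concentrations for 5 min at 37 °C, then with 10 μmoles TAMe for 30 min at 37 °C. Remaining ester was measured by alkaline hydroxylamine/FeCl3 colour, absorbance at 530 nm.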"}, "[4]": {"target": "T2, Human Cl Esterase (Homo sapiens, UniProt P09871)", "T2 sequence (P09871 438-688 limits assumed)": "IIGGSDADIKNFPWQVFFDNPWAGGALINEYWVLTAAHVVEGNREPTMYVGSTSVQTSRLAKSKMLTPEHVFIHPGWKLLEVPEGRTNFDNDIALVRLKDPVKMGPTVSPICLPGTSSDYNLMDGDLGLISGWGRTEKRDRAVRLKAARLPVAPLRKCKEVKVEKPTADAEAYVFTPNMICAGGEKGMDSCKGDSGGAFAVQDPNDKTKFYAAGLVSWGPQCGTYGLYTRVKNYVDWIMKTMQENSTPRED", "T2 sequence (P09871 16-437 partner limits assumed)": "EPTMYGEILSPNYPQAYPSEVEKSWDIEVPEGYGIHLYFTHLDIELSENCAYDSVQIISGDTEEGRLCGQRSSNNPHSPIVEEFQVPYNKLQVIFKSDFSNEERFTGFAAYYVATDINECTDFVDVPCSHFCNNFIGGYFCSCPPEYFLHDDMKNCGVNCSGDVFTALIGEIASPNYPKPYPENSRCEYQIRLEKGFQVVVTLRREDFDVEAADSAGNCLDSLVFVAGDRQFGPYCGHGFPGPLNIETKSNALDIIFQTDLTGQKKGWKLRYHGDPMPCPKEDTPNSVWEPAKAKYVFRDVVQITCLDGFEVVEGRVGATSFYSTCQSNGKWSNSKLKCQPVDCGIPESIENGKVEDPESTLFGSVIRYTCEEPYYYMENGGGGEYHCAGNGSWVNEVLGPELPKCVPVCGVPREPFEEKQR", "assay": "Inhibitory effect on ester-hydrolyzing activity of human Cl esterase (ATEe substrate)", "assay_type": "biochemical", "settings": "in vitro, ATEe, pH 7.4; Table 4 bracketed value; read-out: Cl-esterase ID50"}, "[5]": {"system": "clotting activity of thrombin", "assay": "Inhibitory activity on plasma clotting (rabbit platelet poor plasma, thrombin-induced)", "assay_type": "biochemical", "experimental": "Blood was drawn from carotid artery of an ether anesthetized rabbit with 1/10 volume of 3.8% sodium citrate. Platelet poor plasma (PPP) was prepared from citrated blood which was centrifuged at 3,000 r.p.m. for 15 minutes at 4° C. PPP, 0.9 ml, was taken into cell, 10μ of a compound solution was added and incubated at 37° C. for 10 minutes. […] Compounds were dissolved in distilled water or 50% dimethyl sulfoxide (0.5% final concentration)."}, "[6]": {"assay": "Acute toxicity (LD50) by intraperitoneal administration in mice", "settings": "mouse, in vivo, ip"}, "[7]": {"target": "Human Plasma Kallikrein (Homo sapiens, UniProt P03952)", "sequence (P03952 391-638 limits assumed)": "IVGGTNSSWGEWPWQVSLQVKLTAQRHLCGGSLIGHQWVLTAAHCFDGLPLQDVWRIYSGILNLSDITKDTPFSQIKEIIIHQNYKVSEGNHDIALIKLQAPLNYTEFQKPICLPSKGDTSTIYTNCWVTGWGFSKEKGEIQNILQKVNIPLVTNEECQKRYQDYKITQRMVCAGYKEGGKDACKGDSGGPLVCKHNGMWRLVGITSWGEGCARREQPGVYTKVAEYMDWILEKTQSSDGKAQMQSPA", "sequence (P03952 20-390 partner limits assumed)": "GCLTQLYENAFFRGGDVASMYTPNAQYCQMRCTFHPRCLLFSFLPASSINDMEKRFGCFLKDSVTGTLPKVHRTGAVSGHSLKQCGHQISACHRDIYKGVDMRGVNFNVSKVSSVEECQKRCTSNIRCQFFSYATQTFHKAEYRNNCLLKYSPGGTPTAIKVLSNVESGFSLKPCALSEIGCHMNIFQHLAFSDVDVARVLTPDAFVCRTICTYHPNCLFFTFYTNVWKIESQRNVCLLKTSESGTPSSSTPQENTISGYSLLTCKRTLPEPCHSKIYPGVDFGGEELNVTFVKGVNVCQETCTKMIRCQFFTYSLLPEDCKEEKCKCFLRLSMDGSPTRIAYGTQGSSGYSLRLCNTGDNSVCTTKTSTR", "assay": "Inhibitory effect on ester-hydrolyzing activity of human plasma kallikrein (TAMe substrate)", "assay_type": "biochemical", "settings": "in vitro, TAMe; Table 4 bracketed value; read-out: Kallikrein ID50", "experimental": "as §1"}, "[8]": {"system": "thrombin", "assay": "Inhibitory activity on thrombus formation: protection from lethal thrombin injection in mice", "assay_type": "in vivo, mice (ddY strain)", "settings": "10 minutes before thrombin 300 NIH units/kg i.v., No. 91 in 2.5% gum arabic", "experimental": "White male mice (ddY strain), 4 weeks age and weighing 18-27 g, were used throughout the experiments. […] The intravenous injection of 300 NIH units/kg of thrombin over 30 seconds into mice was lethal to all animals. The compounds were intraperitoneally administered in doses of 1, 10, and 100 mg/kg in saline unless otherwise described.\nCompounds were intraperitoneally administered 10 minutes before thrombin injection. Compound No. 91 was dissolved in 2.5% gum arabic."}}, "data": [{"molecule": "COC(=O)c1ccc(OC(=O)C2CCCc3ccc(NC(=N)N)cc32)cc1", "note": "(stereo not drawn) [Compound 144]", "values": [{"measurement": "IC50", "setting": "[1]", "result": 14, "unit": "µM"}, {"measurement": "IC50", "setting": "[2]", "result": 45, "unit": "µM"}, {"measurement": "IC50", "setting": "[3]", "result": 19, "unit": "µM"}, {"measurement": "IC50", "setting": "[4]", "result": 310, "unit": "µM"}, {"measurement": "Percent inhibition of clotting activity", "setting": "[5]; 3 × 10^-4 M, DMSO control", "result": 57.3, "unit": "%"}, {"measurement": "Percent inhibition of clotting activity", "setting": "[5]; 3 × 10^-5 M, DMSO control", "result": 1.7, "unit": "%"}, {"measurement": "Percent inhibition of clotting activity", "setting": "[5]; 10^-3 M, DMSO control", "result": 98.1, "unit": "%"}, {"measurement": "Percent inhibition of clotting activity", "setting": "[5]; 10^-4 M, DMSO control", "result": 58.0, "unit": "%"}, {"measurement": "Percent inhibition of clotting activity", "setting": "[5]; 10^-5 M, DMSO control", "result": -3.6, "unit": "%"}, {"measurement": "LD50", "setting": "[6]", "result": 192, "unit": "mg/kg"}]}, {"molecule": "CCOC(=O)c1ccc(OC(=O)C2CCCc3ccc(NC(=N)N)cc32)cc1", "note": "(stereo not drawn) [Compound 148]", "values": [{"measurement": "IC50", "setting": "[1]", "result": 150, "unit": "µM"}, {"measurement": "IC50", "setting": "[2]", "result": 140, "unit": "µM"}, {"measurement": "IC50", "setting": "[7]", "result": 170, "unit": "µM"}, {"measurement": "IC50", "setting": "[3]", "result": 6, "unit": "µM"}, {"measurement": "IC50", "setting": "[4]", "result": 260, "unit": "µM"}, {"measurement": "Percent inhibition of clotting activity", "setting": "[5]; 3 × 10^-4 M, H2O control", "result": 55.6, "unit": "%"}, {"measurement": "Percent inhibition of clotting activity", "setting": "[5]; 3 × 10^-5 M, H2O control", "result": 20.0, "unit": "%"}, {"measurement": "Percent inhibition of clotting activity", "setting": "[5]; 10^-3 M, H2O control", "result": 100, "unit": "%"}, {"measurement": "Percent inhibition of clotting activity", "setting": "[5]; 10^-4 M, H2O control", "result": 6.7, "unit": "%"}, {"measurement": "Percent inhibition of clotting activity", "setting": "[5]; 10^-5 M, H2O control", "result": -2.2, "unit": "%"}, {"measurement": "% protective", "setting": "[8]; 1 mg/kg i.p.", "result": 0, "unit": "%"}, {"measurement": "Survived / Tested", "setting": "[8]; 1 mg/kg i.p.", "result": "0/10"}, {"measurement": "% protective", "setting": "[8]; 10 mg/kg i.p.", "result": 30, "unit": "%"}, {"measurement": "Survived / Tested", "setting": "[8]; 10 mg/kg i.p.", "result": "3/10"}, {"measurement": "% protective", "setting": "[8]; 100 mg/kg i.p.", "result": 90, "unit": "%"}, {"measurement": "Survived / Tested", "setting": "[8]; 100 mg/kg i.p.", "result": "9/10"}, {"measurement": "LD50", "setting": "[6]", "result": 92, "unit": "mg/kg"}]}]}
